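These data come from cells grown in 96-well plates and exposed to compound for 48 hours at five concentrations. At the GI50, growth is halved. Definition used: TGI = concentration required for complete inhibition of growth.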
How the values were obtained:
Assay in all cases: growth of human tumour cells (NCI), 48 h
OVCAR-8 ovarian = tested on: OVCAR-8 ovarian
SNB-19 CNS = tested on: SNB-19 CNS
HCT-15 colon = tested on: HCT-15 colon
IGROV1 ovarian = tested on: IGROV1 ovarian
MCF7 breast = tested on: MCF7 breast
SK-MEL-5 melanoma = tested on: SK-MEL-5 melanoma
NCI-H226 lung = tested on: NCI-H226 lung
DU-145 prostate = tested on: DU-145 prostate
CCRF-CEM leukemia = tested on: CCRF-CEM leukemia
NCI-H522 lung = tested on: NCI-H522 lung

Row | Structure (SMILES) | GI50 (OVCAR-8 ovarian) | TGI (OVCAR-8 ovarian) | GI50 (SNB-19 CNS) | TGI (SNB-19 CNS) | GI50 (HCT-15 colon) | TGI (HCT-15 colon) | GI50 (IGROV1 ovarian) | TGI (IGROV1 ovarian) | GI50 (MCF7 breast) | TGI (MCF7 breast) | GI50 (SK-MEL-5 melanoma) | TGI (SK-MEL-5 melanoma) | GI50 (NCI-H226 lung) | TGI (NCI-H226 lung) | GI50 (DU-145 prostate) | TGI (DU-145 prostate) | GI50 (CCRF-CEM leukemia) | TGI (CCRF-CEM leukemia) | GI50 (NCI-H522 lung) | TGI (NCI-H522 lung)
1 | O=C(Cc1ccc(Nc2ccnc(C(F)(F)F)c2)cc1)Nc1cc(Cl)ccc1O | 20.5 µM | > 100 µM | 5.31 µM | 38 µM | 5.66 µM | 61 µM | 6.34 µM | 30 µM | 4.99 µM | 42.8 µM | 3.86 µM | 14.7 µM | 10.3 µM | 32.3 µM | 9.27 µM | 38.1 µM | 1.68 µM | 7.63 µM | – | –
2 | O=C(c1ccco1)c1nc2cc(C(F)(F)F)ccc2[n+]([O-])c1C(F)(F)F | > 100 µM | > 100 µM | 48.3 µM | > 100 µM | 56.5 µM | > 100 µM | 34.9 µM | > 100 µM | 6.57 µM | > 100 µM | 33.3 µM | > 100 µM | – | – | 61.7 µM | > 100 µM | 60.2 µM | > 100 µM | 34.1 µM | > 100 µM
3 | CN(C)c1ccc2cc3ccc(N(C)C)cc3nc2c1 | – | 5.62 µM | – | 3.95 µM | – | 2.94 µM | – | 17.3 µM | – | 11.5 µM | – | 8.34 µM | – | 19.9 µM | – | 4.29 µM | – | – | – | 7.56 µM
4 | CN1C(=O)CCC1c1ccc2c(c1)oc(=O)n2C (centres undefined) | – | > 100 µM | – | > 100 µM | – | > 100 µM | – | > 100 µM | – | – | – | – | – | > 100 µM | – | – | – | > 100 µM | – | > 100 µM
5 | Oc1ccc2ccccc2c1N=Nc1ccc(Cl)cc1 | – | > 100 µM | – | > 100 µM | – | > 100 µM | – | > 100 µM | – | – | – | > 100 µM | – | > 100 µM | – | > 100 µM | – | > 100 µM | – | > 100 µM
6 | O=C1c2cccc3c(Cl)ccc(c23)C(=O)N1CCCN1CCN(CCCN2C(=O)c3cccc4c(Cl)ccc(c34)C2=O)CC1 | – | > 100 µM | – | > 100 µM | – | > 100 µM | – | > 100 µM | – | – | – | > 100 µM | – | > 100 µM | – | – | – | > 100 µM | – | –
7 | O=S1c2ccccc2NC(c2ccc3ccccc3c2)CC1c1ccccc1 (centres undefined) | – | 57 µM | – | > 100 µM | – | 54 µM | – | 40.5 µM | – | – | – | 37.9 µM | – | 48.9 µM | – | – | – | 38 µM | – | 42.4 µM
8 | COc1ccc(OC(C)C(=O)O)c2c1CCCC2=O (centres undefined) | – | > 100 µM | – | > 100 µM | – | > 100 µM | – | > 100 µM | – | – | – | > 100 µM | – | > 100 µM | – | – | – | > 100 µM | – | > 100 µM
9 | O=C1CC(c2ccsc2)c2snc(-c3ccc(Cl)cc3)c2N1 (centres undefined) | 3.01 µM | > 100 µM | 3.78 µM | > 100 µM | 0.489 µM | > 100 µM | 2.87 µM | > 100 µM | 0.563 µM | > 100 µM | 0.404 µM | 2.4 µM | 7.55 µM | > 100 µM | 2.68 µM | > 100 µM | – | – | 0.626 µM | 13.5 µM
10 | OCC(O)COc1c(Cl)cc(Cl)cc1Cl (centres undefined) | – | > 100 µM | – | > 100 µM | – | > 100 µM | – | > 100 µM | – | – | – | > 100 µM | – | > 100 µM | – | – | – | > 61.9 µM | – | > 100 µM
11 | Cc1cccc(C(C)C)c1NC(=O)CCl | – | – | – | > 100 µM | – | > 100 µM | – | – | – | – | – | > 100 µM | – | > 100 µM | – | – | – | > 100 µM | – | 30 µM
12 | C=C1CCC2C(C)(CO)C(O)CCC2(C)C1C/C=C1/CCOC1=O (centres undefined) | – | > 100 µM | – | > 100 µM | – | > 100 µM | – | > 100 µM | – | – | – | > 100 µM | – | > 100 µM | – | – | – | > 100 µM | – | > 100 µM
13 | CC(C)CN1CC(C)C(=O)NC1=O (centres undefined) | – | > 100 µM | – | > 100 µM | – | – | – | – | – | – | – | > 100 µM | – | > 100 µM | – | – | – | > 100 µM | – | > 100 µM
14 | CCC(C)c1cccc(C)c1NC(=O)C(=O)Cc1nc2ccccc2s1 (centres undefined) | – | > 100 µM | – | > 100 µM | – | > 100 µM | – | > 100 µM | – | – | – | > 100 µM | – | – | – | – | – | > 100 µM | – | > 100 µM
15 | Cc1ccc(/C=C/C(=O)c2ccc([N+](=O)[O-])cc2)cc1 | – | > 100 µM | – | > 100 µM | – | > 100 µM | – | > 100 µM | – | – | – | > 100 µM | – | > 100 µM | – | – | – | > 100 µM | – | > 100 µM
16 | CN(C)C(=S)/N=c1\ss/c(=N\C(=S)N(C)C)n1Cc1ccco1 | – | > 100 µM | – | > 100 µM | – | > 100 µM | – | > 100 µM | – | – | – | > 100 µM | – | > 100 µM | – | – | – | > 100 µM | – | > 100 µM
17 | O=C1CCNC(=O)NC1 | – | > 100 µM | – | > 100 µM | – | > 100 µM | – | > 100 µM | – | – | – | > 100 µM | – | > 100 µM | – | – | – | > 100 µM | – | > 100 µM
18 | NC(CCc1ncc(-c2ccccc2)s1)C(=O)O (centres undefined) | – | > 100 µM | – | > 100 µM | – | > 100 µM | – | > 100 µM | – | – | – | > 100 µM | – | > 100 µM | – | – | – | > 100 µM | – | > 100 µM
